Assays:
[1] = tested on: common (oilseed) sunflower; assay: Test C pre-/postemergence herbicide test; assay type: in vivo, Helianthus annuus; conditions: for Plant response rating (0 = no effect, 100 = complete control), Sunflower: 62 g ai/ha; for Plant response rating (0 = no effect, 100 = complete control), Sunflower / Plant response rating, Sunflower: preemergence; for Plant response rating, Sunflower: 125 g ai/ha, scale 0 (no effect) to 100 (complete control), visual, 12 to 14 days
Outline: (§1)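 Emerged plants at the 1- to 4-leaf stage (2–18 cm), or freshly planted seeds, received test chemicals in a non-phytotoxic solvent mixture with surfactant. Response was visually scored against controls after 12 to 14 days in the greenhouse, on a 0 (no effect) to 100 (complete control) scale.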

[2] = tested on: rice; assay: Test B pre-/postemergence herbicide test; assay type: in vivo, Oryza sativa; conditions: preemergence
Outline: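 Plants compared with untreated controls 13–15 days post-treatment and given a visual 0–100 injury score. Applications: preemergence to seeds; postemergence at 1- to 4-leaf (2–18 cm); paddy species flooded, 2-leaf stage. Vehicle non-phytotoxic, surfactant included.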

[3] = tested on: corn; assay: Test C pre-/postemergence herbicide test; assay type: in vivo, Zea mays
Outline: as §1

[4] = tested on: soybean; assay: Test C pre-/postemergence herbicide test; assay type: in vivo, Glycine max
Outline: as §1

[5] = tested on: bermudagrass; assay: Test C pre-/postemergence herbicide test; assay type: in vivo, Cynodon dactylon
Outline: as §1

[6] = tested on: woolly cupgrass; assay: Test C pre-/postemergence herbicide test; assay type: in vivo, Eriochloa villosa
Outline: as §1

[7] = tested on: velvetleaf; assay: Test C pre-/postemergence herbicide test; assay type: in vivo, Abutilon theophrasti
Outline: as §1

[8] = tested on: large crabgrass; assay: Test A pre-/postemergence herbicide test; assay type: in vivo, Digitaria sanguinalis
Outline: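 Both application timings were run together: directed soil spray over freshly planted seeds in sandy loam, and runoff spray onto 2–10 cm seedlings. Evaluation after ~10 days in greenhouse used a 0–100 visual scale versus untreated controls.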

[9] = tested on: smallflower umbrella sedge; assay: Test C flooded paddy test; assay type: in vivo, Cyperus difformis; conditions: for Plant response rating, Sedge, Umbrella: 500 g ai/ha, visual rating after 12 to 14 days
[10] = tested on: rice; assay: Test C flooded paddy test; assay type: in vivo, Oryza sativa; conditions: for Plant response rating, Rice: 500 g ai/ha, visual rating after 12 to 14 days
Outline: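 Postemergence sprays applied to plants 2 to 18 cm tall (1- to 4-leaf stage); paddy species grown to 2-leaf stage under flooding. After 12 to 14 days in greenhouse, visual rating versus untreated controls on 0–100 scale (0 no effect, 100 complete control).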

[11] = Preemergence, 500 g ai/ha, scale 0 to 100, 0 no effect, 100 complete control
[12] = 500 g ai/ha, visual rating 0-100, 0 no effect, 100 complete control
[13] = 125 g ai/ha, scale 0 (no effect) to 100 (complete control), visual, 12 to 14 days, preemergence
[14] = 250 g ai/ha, scale 0 to 100 (0 no effect, 100 complete control), visual, 12 to 14 days, preemergence
[15] = 62 g ai/ha, scale 0 to 100 (0 no effect, 100 complete control)
[16] = 125 g ai/ha, scale 0 to 100 (0 no effect, 100 complete control)
[17] = 250 g ai/ha, scale of 0 to 100, 0 is no effect, 100 is complete control
[18] = scale 0 to 100 (0 no effect, 100 complete control)
[19] = Postemergence, 250 g ai/ha, scale 0 to 100, 0 no effect, 100 complete control
[20] = postemergence, 125 g ai/ha, scale 0 to 100
[21] = postemergence, 62 g ai/ha, scale 0 to 100

CCn1nc(C(C)(C)C)cc1C(=O)Nc1cccc(S(=O)(=O)C(F)(F)F)c1 [Compound 134]
Plant response rating (0 = no effect, 100 = complete control), Sunflower [1]: 0 | Plant response rating, Sunflower [1]: 0 | Sunflower plant response rating [1, 11]: 0 | Plant response rating, Rice [2, 12]: 50 | Plant response rating (0 = no effect, 100 = complete control), Corn ([3]; 62 g ai/ha, preemergence): 0 | Plant response rating, Corn [3, 13]: 0 | Plant response rating, Corn [3, 14]: 0 | Corn plant response rating [3, 11]: 60 | Plant response rating (0 = no effect, 100 = complete control), Soybean ([4]; 62 g ai/ha, preemergence): 0 | Plant response rating, Soybean [4, 13]: 0 | Soybean plant response rating [4, 11]: 35 | Plant response rating (0 = no effect, 100 = complete control), Bermudagrass ([5]; 62 g ai/ha, preemergence): 80 | Plant response rating, Bermudagrass [5, 13]: 95 | Plant response rating, Bermudagrass [5, 14]: 95 | Bermudagrass plant response rating [5, 11]: 100 | Plant response rating (0 = no effect, 100 = complete control), Cupgrass, Woolly ([6]; 62 g ai/ha, preemergence): 0 | Plant response rating, Cupgrass, Woolly [6, 13]: 0 | Plant response rating, Cupgrass, Woolly [6, 14]: 20 | Cupgrass, Woolly plant response rating [6, 11]: 45 | Plant response rating, Velvetleaf [7, 13]: 90 | Velvetleaf plant response rating [7, 11]: 100 | Crabgrass, Large plant response rating ([8]; Postemergence, 250 g ai/ha, 0 to 100 scale, 0 no effect, 100 complete control): 20 | Plant response rating, Crabgrass, Large ([8]; Postemergence, 1000 g ai/ha, 0 to 100 scale, 0 no effect, 100 complete control): 35 | Crabgrass, Large plant response rating ([8]; Preemergence, 1000 g ai/ha, visual rating, 0 to 100 scale (0 no effect, 100 complete control)): 95 | Crabgrass, Large plant response rating ([8]; preemergence, 250 g ai/ha, visual injury, 0 to 100 scale (0 no effect, 100 complete control)): 35 | Sedge, Umbrella plant response rating [9, 15]: 55 | Sedge, Umbrella plant response rating [9, 16]: 75 | Sedge, Umbrella plant response rating [9, 17]: 85 | Plant response rating, Sedge, Umbrella [9, 18]: 85 | Rice plant response rating [10, 15]: 35 | Rice plant response rating [10, 16]: 45 | Rice plant response rating [10, 17]: 55 | Plant response rating, Rice [10, 18]: 60

CCn1nc(C(C)(C)C)cc1C(=O)Nc1cccc(C#N)c1 [Compound 139]
Plant response rating (0 = no effect, 100 = complete control), Sunflower [1]: 0 | Plant response rating, Sunflower [1]: 10 | Plant response rating, Rice [2, 12]: 60 | Plant response rating, Rice ([2]; 125 g ai/ha, 0 to 100 scale, 0 is no effect, 100 is complete control): 30 | Plant response rating (0 = no effect, 100 = complete control), Corn ([3]; 62 g ai/ha, preemergence): 0 | Plant response rating, Corn [3, 13]: 0 | Plant response rating, Corn [3, 14]: 15 | Plant response rating, Corn [3, 19]: 10 | Plant response rating, Corn [3, 20]: 10 | Plant response rating, Corn [3, 21]: 0 | Plant response rating, Soybean [4, 13]: 10 | Plant response rating, Soybean [4, 19]: 35 | Plant response rating, Soybean [4, 20]: 30 | Plant response rating, Soybean [4, 21]: 20 | Plant response rating, Bermudagrass ([5]; 31 g ai/ha, scale 0 to 100, 0 no effect, 100 complete control, last section of Table C (species set of preemergence test)): 10 | Plant response rating (0 = no effect, 100 = complete control), Bermudagrass ([5]; 62 g ai/ha, preemergence): 60 | Plant response rating, Bermudagrass [5, 13]: 90 | Plant response rating, Bermudagrass [5, 14]: 95 | Plant response rating, Bermudagrass [5, 19]: 0 | Plant response rating, Bermudagrass [5, 20]: 0 | Plant response rating, Bermudagrass ([5]; postemergence, 31 g ai/ha, scale 0 to 100): 0 | Plant response rating, Bermudagrass [5, 21]: 0 | Plant response rating (0 = no effect, 100 = complete control), Cupgrass, Woolly ([6]; 62 g ai/ha, preemergence): 0 | Plant response rating, Cupgrass, Woolly [6, 13]: 10 | Plant response rating, Cupgrass, Woolly [6, 14]: 55 | Plant response rating, Cupgrass, Woolly [6, 19]: 5 | Plant response rating, Cupgrass, Woolly [6, 20]: 0 | Plant response rating, Cupgrass, Woolly [6, 21]: 0 | Plant response rating, Velvetleaf [7, 13]: 30 | Plant response rating, Velvetleaf [7, 19]: 50 | Plant response rating, Velvetleaf [7, 20]: 50 | Plant response rating, Velvetleaf [7, 21]: 30 | Crabgrass, Large plant response rating ([8]; Postemergence, 500 g ai/ha, 0 to 100 scale, 0 no effect, 100 complete control): 0 | Plant response rating, Crabgrass, Large ([8]; Postemergence, 2000 g ai/ha, 0 to 100 scale, 0 no effect, 100 complete control): 30 | Crabgrass, Large plant response rating ([8]; Preemergence, 500 g ai/ha, visual rating, 0 to 100 scale (0 no effect, 100 complete control)): 45 | Crabgrass, Large plant response rating ([8]; Preemergence, 2000 g ai/ha, visual rating, 0 to 100 scale (0 no effect, 100 complete control)): 75 | Sedge, Umbrella plant response rating [9, 15]: 75 | Sedge, Umbrella plant response rating [9, 16]: 80 | Sedge, Umbrella plant response rating [9, 17]: 85 | Plant response rating, Sedge, Umbrella [9, 18]: 85 | Rice plant response rating [10, 15]: 0 | Rice plant response rating [10, 16]: 35 | Rice plant response rating [10, 17]: 45 | Plant response rating, Rice [10, 18]: 60

From patent US20060069132A1, “Azolecarboxamide herbicides” (priority 2004, published 2006)
